Assay results published in patent publication US20020164346A1, “Altered peptide ligands” (priority 2001, published 2002).

Tested on: normal donor HLA-A2+ T cells
Experiment: In vitro T cell education with peptide-pulsed autologous dendritic cells; lysis of 51Cr-labeled peptide-pulsed T2 cells
Format: cell-based, human
Source text: Normal donor aphoresis products were obtained from Dana-Farber Cancer Research Institute (Boston, Mass.). PBMC were isolated by centrifugation over Ficoll (Nycomed, Oslo, Norway). CD8^+ T cells were isolated using magnetic beads (Dynal, Oslo, Norway) according to the manufacturers instructions. To generate autologous dendritic cells, monocytes were isolated from the PBMC and treated with GM-CSF (Immunex, Seattle, Wash.) and IL-4 (PeproTech, London, England) for 6 days as previously described. One day prior to establishing the T cell/DC cocultures, the DCs were pulsed with peptides (10 μg/ml) overnight followed by the addition of the previously isolated CD8+ T cells at a T:DC of 10:1. Cultures were restimulated with peptide-pulsed DCs. IL-2 (50 IU/ml) was introduced on day 8 and added every 3-4 days as needed. The bulk cultures were assayed one week after the fifth restimulation. Peptide-pulsed T2 cell targets were prepared as described above and adenovirus-infected target cells were allowed to incubate with the viruses for 48 hours at the indicated MOI prior to being used in the CTL assay. […]
Altered peptides give rise to T cells that recognize the native epitope. […] All data points represent the average of 4 replicates and background lysis, as determined using T2 cells pulsed with equivalent amounts of DMSO containing no peptide, was subtracted out.

native gp100 peptide ligand: native (wild-type) gp100209-217 peptide epitope of the human melanoma antigen gp100
ability of peptide-educated T cells to lyse targets displaying the native antigen/ligand (T cells from normal (healthy) donors educated with the peptide): generally inefficient | eliciting reactive T cells (lysis of T2 cells pulsed with native peptide) (after 5 weekly stimulations, bulk T cell cultures, FIG. 3): relatively poor
